{
  "source": "PubChem BioAssay (NCI)",
  "experiment_in_all_cases": "NCI tumour cell line growth inhibition, 48 h",
  "key": {"786-0 renal": {"system": "786-0 renal"}, "A498 renal": {"system": "A498 renal"}, "A549 NSCLC": {"system": "A549 NSCLC"}, "BT-549 breast": {"system": "BT-549 breast"}, "CCRF-CEM leukemia": {"system": "CCRF-CEM leukemia"}, "COLO 205 colon": {"system": "COLO 205 colon"}, "DLD-1 colon": {"system": "DLD-1 colon"}, "DMS 114 small cell lung": {"system": "DMS 114 small cell lung"}, "DMS 273 small cell lung": {"system": "DMS 273 small cell lung"}, "EKVX NSCLC": {"system": "EKVX NSCLC"}, "HCC-2998 colon": {"system": "HCC-2998 colon"}, "HCT-116 colon": {"system": "HCT-116 colon"}, "HCT-15 colon": {"system": "HCT-15 colon"}, "HL-60(TB) leukemia": {"system": "HL-60(TB) leukemia"}, "HOP-18 NSCLC": {"system": "HOP-18 NSCLC"}, "HS 578T breast": {"system": "HS 578T breast"}, "HT29 colon": {"system": "HT29 colon"}, "IGROV1 ovarian": {"system": "IGROV1 ovarian"}, "K-562 leukemia": {"system": "K-562 leukemia"}, "KM12 colon": {"system": "KM12 colon"}, "KM20L2 colon": {"system": "KM20L2 colon"}, "M14 melanoma": {"system": "M14 melanoma"}, "M19-MEL melanoma": {"system": "M19-MEL melanoma"}, "MALME-3M melanoma": {"system": "MALME-3M melanoma"}, "MCF7 breast": {"system": "MCF7 breast"}, "MDA-MB-231 breast": {"system": "MDA-MB-231 breast"}, "MDA-MB-435": {"system": "MDA-MB-435"}, "MDA-N": {"system": "MDA-N"}, "NCI-H23 lung": {"system": "NCI-H23 lung"}, "NCI-H460 lung": {"system": "NCI-H460 lung"}, "NCI-H522 lung": {"system": "NCI-H522 lung"}, "OVCAR-5 ovarian": {"system": "OVCAR-5 ovarian"}, "P388 leukemia": {"system": "P388 leukemia"}, "P388/ADR leukemia": {"system": "P388/ADR leukemia"}, "RPMI-8226 leukemia": {"system": "RPMI-8226 leukemia"}, "RXF 393 renal": {"system": "RXF 393 renal"}, "SF-268 CNS": {"system": "SF-268 CNS"}, "SF-539 CNS": {"system": "SF-539 CNS"}, "SK-MEL-28 melanoma": {"system": "SK-MEL-28 melanoma"}, "SK-MEL-5 melanoma": {"system": "SK-MEL-5 melanoma"}, "SN12K1 renal": {"system": "SN12K1 renal"}, "SNB-19 CNS": {"system": "SNB-19 CNS"}, "SNB-78 CNS": {"system": "SNB-78 CNS"}, "SR leukemia": {"system": "SR leukemia"}, "SW-620 colon": {"system": "SW-620 colon"}, "T-47D breast": {"system": "T-47D breast"}, "U251 CNS": {"system": "U251 CNS"}, "UACC-257 melanoma": {"system": "UACC-257 melanoma"}, "UACC-62 melanoma": {"system": "UACC-62 melanoma"}, "XF 498 CNS": {"system": "XF 498 CNS"}},
  "note": "Several values for one entry are separate records, joined by “and”; a condition that tells them apart may be missing. Equal values may be shown once.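 Cells were grown in 96-well plates and exposed to each compound for 48 hours at five concentrations; endpoints were interpolated linearly between bracketing concentrations, or set to the highest concentration if not reached. GI50 is the concentration that inhibits growth by half. TGI: total growth inhibition.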",
  "data": [
    {"smiles": "CN1N=C(N)c2cn(C3OC(COP(=O)(O)O)C(O)C3O)c3ncnc1c23", "note": "(configuration not stated)", "values": [
      {"measurement": "TGI", "setting": "786-0 renal", "value": "500 µM and 1650 µM and > 3510 µM"},
      {"measurement": "GI50", "setting": "A498 renal", "value": "68.5 µM and 40.6 µM"},
      {"measurement": "TGI", "setting": "A498 renal", "value": "391 µM and 1650 µM and 713 µM"},
      {"measurement": "TGI", "setting": "A549 NSCLC", "value": "500 µM and 1650 µM and > 4780 µM"},
      {"measurement": "GI50", "setting": "BT-549 breast", "value": "20.1 µM and 4.86 µM"},
      {"measurement": "TGI", "setting": "BT-549 breast", "value": "135 µM and 626 µM and 114 µM"},
      {"measurement": "TGI", "setting": "CCRF-CEM leukemia", "value": "500 µM and 1650 µM and > 5000 µM"},
      {"measurement": "TGI", "setting": "COLO 205 colon", "value": "499 µM and > 1650 µM and 2170 µM"},
      {"measurement": "TGI", "setting": "DLD-1 colon", "value": 617, "unit": "µM"},
      {"measurement": "TGI", "setting": "DMS 114 small cell lung", "value": "> 4300", "unit": "µM"},
      {"measurement": "TGI", "setting": "DMS 273 small cell lung", "value": "> 5000", "unit": "µM"},
      {"measurement": "TGI", "setting": "EKVX NSCLC", "value": "500 µM and 1650 µM and 360 µM"},
      {"measurement": "TGI", "setting": "HCC-2998 colon", "value": "500 µM and 1650 µM and > 4830 µM"},
      {"measurement": "TGI", "setting": "HCT-116 colon", "value": "468 µM and 1650 µM and > 4540 µM"},
      {"measurement": "TGI", "setting": "HCT-15 colon", "value": "500 µM and 1650 µM and 2630 µM"},
      {"measurement": "TGI", "setting": "HL-60(TB) leukemia", "value": "114 µM and 123 µM and 116 µM"},
      {"measurement": "TGI", "setting": "HOP-18 NSCLC", "value": 333, "unit": "µM"},
      {"measurement": "TGI", "setting": "HS 578T breast", "value": "232 µM and 341 µM and 144 µM"},
      {"measurement": "TGI", "setting": "HT29 colon", "value": "500 µM and 1650 µM and > 4630 µM"},
      {"measurement": "TGI", "setting": "IGROV1 ovarian", "value": "500 µM and 1650 µM and 918 µM"},
      {"measurement": "TGI", "setting": "K-562 leukemia", "value": "500 µM and > 1650 µM and > 5000 µM"},
      {"measurement": "TGI", "setting": "KM12 colon", "value": "500 µM and > 1650 µM and > 5000 µM"},
      {"measurement": "TGI", "setting": "KM20L2 colon", "value": "> 4370", "unit": "µM"},
      {"measurement": "TGI", "setting": "M14 melanoma", "value": "500 µM and 1650 µM and 1670 µM"},
      {"measurement": "TGI", "setting": "M19-MEL melanoma", "value": "> 4220", "unit": "µM"},
      {"measurement": "TGI", "setting": "MALME-3M melanoma", "value": "305 µM and 1650 µM and 2090 µM"},
      {"measurement": "TGI", "setting": "MCF7 breast", "value": "500 µM and 1650 µM and 3650 µM"},
      {"measurement": "TGI", "setting": "MDA-MB-231 breast", "value": "163 µM and 259 µM"},
      {"measurement": "TGI", "setting": "MDA-MB-435", "value": "363 µM and 671 µM"},
      {"measurement": "GI50", "setting": "MDA-N", "value": 25.2, "unit": "µM"},
      {"measurement": "TGI", "setting": "MDA-N", "value": "390 µM and > 1530 µM"},
      {"measurement": "TGI", "setting": "NCI-H23 lung", "value": "500 µM and 1650 µM and 4180 µM"},
      {"measurement": "TGI", "setting": "NCI-H460 lung", "value": "500 µM and > 1650 µM and 3460 µM"},
      {"measurement": "TGI", "setting": "NCI-H522 lung", "value": "500 µM and > 1650 µM and > 5000 µM"},
      {"measurement": "TGI", "setting": "OVCAR-5 ovarian", "value": "207 µM and 1650 µM and 475 µM"},
      {"measurement": "TGI", "setting": "P388 leukemia", "value": 7.87, "unit": "µM"},
      {"measurement": "TGI", "setting": "P388/ADR leukemia", "value": 2.94, "unit": "µM"},
      {"measurement": "GI50", "setting": "RPMI-8226 leukemia", "value": 143, "unit": "µM"},
      {"measurement": "TGI", "setting": "RPMI-8226 leukemia", "value": "500 µM and > 4750 µM"},
      {"measurement": "GI50", "setting": "RXF 393 renal", "value": 41.9, "unit": "µM"},
      {"measurement": "TGI", "setting": "RXF 393 renal", "value": "236 µM and 462 µM and 460 µM"},
      {"measurement": "TGI", "setting": "SF-268 CNS", "value": "500 µM and 1650 µM and > 4850 µM"},
      {"measurement": "TGI", "setting": "SF-539 CNS", "value": "162 µM and 807 µM and 208 µM"},
      {"measurement": "GI50", "setting": "SK-MEL-28 melanoma", "value": "118 µM and 312 µM"},
      {"measurement": "TGI", "setting": "SK-MEL-28 melanoma", "value": "500 µM and 1650 µM and 2420 µM"},
      {"measurement": "TGI", "setting": "SK-MEL-5 melanoma", "value": "500 µM and > 1650 µM and > 4390 µM"},
      {"measurement": "TGI", "setting": "SN12K1 renal", "value": "> 5000", "unit": "µM"},
      {"measurement": "TGI", "setting": "SNB-19 CNS", "value": "455 µM and 1650 µM and 3170 µM"},
      {"measurement": "TGI", "setting": "SNB-78 CNS", "value": 2910, "unit": "µM"},
      {"measurement": "TGI", "setting": "SR leukemia", "value": "500 µM and > 1650 µM and > 5000 µM"},
      {"measurement": "TGI", "setting": "SW-620 colon", "value": "500 µM and > 1650 µM and > 4130 µM"},
      {"measurement": "TGI", "setting": "T-47D breast", "value": "327 µM and 1650 µM and 269 µM"},
      {"measurement": "TGI", "setting": "U251 CNS", "value": "500 µM and 1650 µM and > 5000 µM"},
      {"measurement": "TGI", "setting": "UACC-257 melanoma", "value": "500 µM and 1650 µM and 4660 µM"},
      {"measurement": "GI50", "setting": "UACC-62 melanoma", "value": "22.6 µM and 96.1 µM"},
      {"measurement": "TGI", "setting": "UACC-62 melanoma", "value": "290 µM and 1650 µM and 1880 µM"},
      {"measurement": "TGI", "setting": "XF 498 CNS", "value": 44.9, "unit": "µM"}
    ]}
  ]
}
